Measured values reported in the NIST ThermoML archive (doi:10.1016/j.jct.2006.01.008).

Assay: mn = molality of the nth substance listed, in mol/kg
Conditions: Liquid

O=[N+]([O-])[O-].[Li+] [lithium nitrate] + CO
Conditions	mass density [kg/m3]
298.15 K, 124 kPa, m1 = 0.1551	794.38
298.15 K, 125 kPa, m1 = 0.2943	800.98
298.15 K, 254 kPa, m1 = 0.8904	826.51
298.15 K, 4856 kPa, m1 = 0.1551	798.86
298.15 K, 5035 kPa, m1 = 0.2943	805.54
298.15 K, 5745 kPa, m1 = 0.8904	831.27
298.15 K, 10235 kPa, m1 = 0.2943	810.19
298.15 K, 10235 kPa, m1 = 0.8904	835.02
298.15 K, 11542 kPa, m1 = 0.1551	804.92
298.15 K, 15247 kPa, m1 = 0.2943	814.48
298.15 K, 15625 kPa, m1 = 0.8904	839.35
298.15 K, 16024 kPa, m1 = 0.1551	808.79
298.15 K, 19745 kPa, m1 = 0.1551	811.89
298.15 K, 20056 kPa, m1 = 0.2943	818.43
298.15 K, 20856 kPa, m1 = 0.8904	843.37
298.15 K, 25158 kPa, m1 = 0.2943	822.44
298.15 K, 25656 kPa, m1 = 0.8904	846.91
298.15 K, 25856 kPa, m1 = 0.1551	816.76
298.15 K, 30142 kPa, m1 = 0.1551	820.02
298.15 K, 30235 kPa, m1 = 0.2943	826.24
298.15 K, 30254 kPa, m1 = 0.8904	850.16
298.15 K, 35626 kPa, m1 = 0.8904	853.78
298.15 K, 35751 kPa, m1 = 0.2943	830.16
298.15 K, 35785 kPa, m1 = 0.1551	824.09
298.15 K, 39875 kPa, m1 = 0.2943	832.95
298.15 K, 39897 kPa, m1 = 0.1551	826.91
298.15 K, 39957 kPa, m1 = 0.8904	856.57
298.27 K, 205 kPa, m1 = 3.614	928.48
298.27 K, 5001 kPa, m1 = 3.614	931.92
298.27 K, 10011 kPa, m1 = 3.614	935.38
298.27 K, 15005 kPa, m1 = 3.614	938.69
298.27 K, 19984 kPa, m1 = 3.614	941.89
298.27 K, 25008 kPa, m1 = 3.614	945.02
298.27 K, 30003 kPa, m1 = 3.614	948.03
298.27 K, 35001 kPa, m1 = 3.614	950.96
298.27 K, 40010 kPa, m1 = 3.614	953.79
298.28 K, 189 kPa, m1 = 1.803	863.5
298.28 K, 205 kPa, m1 = 0.5393	811.38
298.28 K, 4985 kPa, m1 = 0.5393	815.76
298.28 K, 4986 kPa, m1 = 1.803	867.42
298.28 K, 9983 kPa, m1 = 1.803	871.31
298.28 K, 9995 kPa, m1 = 0.5393	820.13
298.28 K, 14986 kPa, m1 = 1.803	875.06
298.28 K, 15005 kPa, m1 = 0.5393	824.3
298.28 K, 19989 kPa, m1 = 1.803	878.65
298.28 K, 19996 kPa, m1 = 0.5393	828.26
298.28 K, 24989 kPa, m1 = 1.803	882.11
298.28 K, 24994 kPa, m1 = 0.5393	832.06
298.28 K, 29989 kPa, m1 = 1.803	885.44
298.28 K, 29991 kPa, m1 = 0.5393	835.71
298.28 K, 34990 kPa, m1 = 1.803	888.67
298.28 K, 34996 kPa, m1 = 0.5393	839.23
298.28 K, 39995 kPa, m1 = 0.5393	842.62
298.28 K, 39997 kPa, m1 = 1.803	891.8
323.15 K, 215 kPa, m1 = 0.8904	804.21
323.15 K, 321 kPa, m1 = 0.2943	777.56
323.15 K, 412 kPa, m1 = 0.1551	770.76
323.15 K, 5026 kPa, m1 = 0.8904	809.05
323.15 K, 5087 kPa, m1 = 0.2943	782.63
323.15 K, 5784 kPa, m1 = 0.1551	776.58
323.15 K, 9859 kPa, m1 = 0.1551	780.81
323.15 K, 10214 kPa, m1 = 0.8904	814.03
323.15 K, 10862 kPa, m1 = 0.2943	788.49
323.15 K, 15038 kPa, m1 = 0.2943	792.54
323.15 K, 15864 kPa, m1 = 0.8904	819.19
323.15 K, 16173 kPa, m1 = 0.1551	787.05
323.15 K, 19786 kPa, m1 = 0.1551	790.45
323.15 K, 20247 kPa, m1 = 0.8904	823
323.15 K, 20742 kPa, m1 = 0.2943	797.81
323.15 K, 25168 kPa, m1 = 0.2943	801.7
323.15 K, 25632 kPa, m1 = 0.8904	827.45
323.15 K, 26297 kPa, m1 = 0.1551	796.26
323.15 K, 30058 kPa, m1 = 0.8904	830.92
323.15 K, 30685 kPa, m1 = 0.2943	806.29
323.15 K, 31035 kPa, m1 = 0.1551	800.23
323.15 K, 35027 kPa, m1 = 0.2943	809.7
323.15 K, 35214 kPa, m1 = 0.8904	834.74
323.15 K, 35748 kPa, m1 = 0.1551	803.97
323.15 K, 39867 kPa, m1 = 0.1551	807.06
323.15 K, 39867 kPa, m1 = 0.8904	837.98
323.15 K, 40002 kPa, m1 = 0.2943	813.4
323.23 K, 206 kPa, m1 = 3.614	908.05
323.23 K, 211 kPa, m1 = 0.5393	788.49
323.23 K, 234 kPa, m1 = 1.803	842.01
323.23 K, 4982 kPa, m1 = 3.614	911.88
323.23 K, 4988 kPa, m1 = 1.803	846.4
323.23 K, 4989 kPa, m1 = 0.5393	793.5
323.23 K, 9987 kPa, m1 = 3.614	915.71
323.23 K, 9991 kPa, m1 = 0.5393	798.45
323.23 K, 10005 kPa, m1 = 1.803	850.8
323.23 K, 14993 kPa, m1 = 3.614	919.41
323.23 K, 14999 kPa, m1 = 0.5393	803.13
323.23 K, 15005 kPa, m1 = 1.803	854.96
323.23 K, 19987 kPa, m1 = 3.614	922.95
323.23 K, 19992 kPa, m1 = 1.803	858.94
323.23 K, 19999 kPa, m1 = 0.5393	807.57
323.23 K, 24991 kPa, m1 = 3.614	926.36
323.23 K, 24995 kPa, m1 = 1.803	862.77
323.23 K, 24997 kPa, m1 = 0.5393	811.8
323.23 K, 29993 kPa, m1 = 0.5393	815.84
323.23 K, 29998 kPa, m1 = 3.614	929.67
323.23 K, 30014 kPa, m1 = 1.803	866.46
323.23 K, 34988 kPa, m1 = 0.5393	819.71
323.23 K, 34989 kPa, m1 = 3.614	932.86
323.23 K, 34999 kPa, m1 = 1.803	869.98
323.23 K, 39993 kPa, m1 = 3.614	935.96
323.23 K, 39995 kPa, m1 = 0.5393	823.45
323.23 K, 39997 kPa, m1 = 1.803	873.39
348.15 K, 381 kPa, m1 = 0.1551	746.07
348.15 K, 409 kPa, m1 = 0.8904	781.31
348.15 K, 425 kPa, m1 = 0.2943	753.31
348.15 K, 5068 kPa, m1 = 0.1551	751.95
348.15 K, 5124 kPa, m1 = 0.2943	759.07
348.15 K, 5124 kPa, m1 = 0.8904	786.59
348.15 K, 10572 kPa, m1 = 0.2943	765.41
348.15 K, 10865 kPa, m1 = 0.8904	792.73
348.15 K, 10875 kPa, m1 = 0.1551	758.86
348.15 K, 15038 kPa, m1 = 0.1551	763.56
348.15 K, 15324 kPa, m1 = 0.2943	770.66
348.15 K, 15326 kPa, m1 = 0.8904	797.27
348.15 K, 19875 kPa, m1 = 0.1551	768.75
348.15 K, 20125 kPa, m1 = 0.2943	775.7
348.15 K, 20875 kPa, m1 = 0.8904	802.64
348.15 K, 25412 kPa, m1 = 0.8904	806.8
348.15 K, 25632 kPa, m1 = 0.2943	781.14
348.15 K, 26038 kPa, m1 = 0.1551	774.93
348.15 K, 30057 kPa, m1 = 0.2943	785.25
348.15 K, 30587 kPa, m1 = 0.8904	811.29
348.15 K, 31412 kPa, m1 = 0.1551	779.95
348.15 K, 35231 kPa, m1 = 0.8904	815.1
348.15 K, 35748 kPa, m1 = 0.1551	783.73
348.15 K, 35942 kPa, m1 = 0.2943	790.36
348.15 K, 39511 kPa, m1 = 0.2943	793.25
348.15 K, 39784 kPa, m1 = 0.1551	787.04
348.15 K, 40005 kPa, m1 = 0.8904	818.78
